Laboratory results taken from patent publication US6989384B2, “Antipicornaviral compounds and compositions, their pharmaceutical uses, and materials for their synthesis” (Agouron Pharmaceuticals, Inc., priority 2000, dated 2006).
pEC50: −log10 of the molar value. Read-outs that look alike come from different tables or passages of the source.

How the values were obtained:
[1] = Cytotoxicity in mock-infected H1-HeLa cells (XTT); format: cell-based; settings: human, two days, read-out: Toxicity CC50
Procedure: (§1) In this cell protection assay, the ability of compounds to protect cells against HRV infection was measured by the XTT dye reduction method, which is described in Weislow et al., J. Natl. Cancer Inst. 1989, vol. 81, 577–586.
(§2) H1-HeLa cells were infected with HRV-14 at a multiplicity of infection (m.o.i.) of 0.13 (virus particles/cell) or mock-infected with medium only. Infected or mock-infected cells were resuspended at 8×10^5 cells per mL, and incubated with appropriate concentrations of the compounds to be tested. Two days later, XTT/PMS was added to test plates and the amount of formazan produced was quantified spectrophotometrically at 450/650 nm. The EC50 value was calculated as the concentration of compound that increased the percentage of formazan production in compound-treated, virus-infected cells to 50% of that produced by compound-free, mock-infected cells. The 50% cytotoxic dose (CC50) was calculated as the concentration of compound that decreased the percentage of formazan produced in compound-treated, mock-infected cells to 50% of that produced by compound-free, mock-infected cells.
(§3) All strains of human rhinovirus (HRV) for use in this assay were purchased from American Type Culture Collection (ATCC), except for HRV serotype-14 (produced from the infectious cDNA clone constructed by Dr. Robert Rueckert, Institute for Molecular Virology, University of Wisconsin, Madison, Wis.). HRV stocks were propagated and viral assays were performed in H1-HeLa cells (ATCC). Cells were grown in minimal essential medium with 10% fetal bovine serum, available from Life Technologies (Gaithersburg, Md.).

[2] = biological target: T1, rhinovirus 3C protease from HRV serotype-14 (Human rhinovirus 14, UniProt P03303); assay: Inhibition of rhinovirus 3C protease activity (FRET assay), HRV-14; format: biochemical; settings: read-out: Protease Inhibition kobs/I
T1 construct: Recombinant rhinovirus 3C proteases; made in house
Procedure: Stock solutions (50 mM, in DMSO) of various compounds were prepared; dilutions were in the same solvent. Recombinant rhinovirus 3C proteases (see Birch et al., “Purification of recombinant human rhinovirus 14 3C protease expressed in Escherichia coli,” Protein Expr. Pur. 1995, 6(5), 609–618) from serotypes 14, 16, and 2 were prepared by the following standard chromatographic procedures: (1) ion exchange using Q Sepharose Fast Flow from Pharmacia; (2) affinity chromatography using Affi-Gel Blue from Biorad; and (3) sizing using Sephadex G-100 from Pharmacia. Each assay sample contained 2% DMSO, 50 mM tris pH 7.6, 1 mM EDTA, a test compound at the indicated concentration, approximately 1 μM substrate, and 50–100 nM protease. The kobs/I values were obtained from reactions initiated by addition of enzyme rather than substrate. RVP activity was measured in the fluorescence resonance energy transfer assay. The substrate was (N-terminal) DABCYL-(Gly-Arg-Ala-Val-Phe-Gln-Gly-Pro-Val-Gly)-EDANS. In the uncleaved peptide, the EDANS fluorescence was quenched by the proximal DABCYL group. When the peptide was cleaved, the quenching was relieved, and activity was measured as an increase in fluorescence signal. In the Table, unless otherwise indicated, all data are for rhinovirus 3C protease from HRV serotype-14 (produced from the infectious cDNA clone constructed by Dr. Robert Rueckert, Institute for Molecular Virology, University of Wisconsin, Madison, Wis.). The data in the column designated kobs/[I] were measured from progress curves in enzyme start experiments.

HRV-14 = assay: Antirhinoviral H1-HeLa cell culture assay (cell protection, XTT), HRV-14; format: cell-based, human rhinovirus; settings: Rhinovirus B, read-out: Cell Protection EC50
Procedure: as §1, §2, §3
The compounds were tested against control compounds WIN 51711, WIN 52084, and WIN 54954 (obtained from Sterling-Winthrop Pharmaceuticals), Pirodavir (obtained from Janssen Pharmaceuticals), and Pleconaril (prepared according to the method described in Diana et al., J. Med. Chem 1995, vol. 38, 1355). Antiviral data obtained for the test compounds are shown in the Table, where all data are for HRV serotype-14 unless otherwise noted in parentheses.

[3] = HRV-14 3C protease, progress curves, enzyme start
[4] = HRV14, 48 h, HRV-14, H1-HeLa cells, XTT, two days

T1 sequence (P03303 1538-1719): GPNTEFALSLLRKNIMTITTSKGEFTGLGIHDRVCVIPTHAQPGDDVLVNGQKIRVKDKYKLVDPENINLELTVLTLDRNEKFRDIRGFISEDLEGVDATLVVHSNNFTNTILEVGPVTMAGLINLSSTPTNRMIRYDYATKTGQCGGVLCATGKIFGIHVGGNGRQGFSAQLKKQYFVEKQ

In the case of `CCOC(=O)/C=C/[C@H](CCC(N)=O)NC(=O)c1ccc(Cl)c(Cl)c1` [Compound 35, 6-carbamoyl-4S-(3,4-dichloro-benzoylamino)-hex-2-enoic acid ethyl ester], the CC50 at 2 days [1] was 100 µM, the kinact/KI [2, 3] was 35 M⁻¹ s⁻¹ and the pEC50 (HRV-14; [4]) was < 4.00.

In the case of `CCOC(=O)/C=C/[C@H](C[C@@H]1CCNC1=O)NC(=O)COc1ccc(Cl)c(Cl)c1` [Compound 62, 4S-[2-(3,4-dichloro-phenoxy)-acetylamino]-5-(2-oxo-pyrrolidin-3S-yl)-pent-2-enoic acid ethyl ester], the CC50 at 2 days [1] was > 10 µM, the kinact/KI [2] was 134 M⁻¹ s⁻¹ and the pEC50 (HRV-14; HRV14, H1-HeLa, 48 h) was 5.21.

In the case of `CCOC(=O)/C=C/[C@H](CCC(N)=O)NC(=O)c1nn(-c2ccccc2)nc1C` [Compound 32, 6-carbamoyl-4S-[(5-methyl-2-phenyl-2H-[1,2,3]triazole-4-carbonyl)-amino]-hex-2-enoic acid ethyl ester], the CC50 at 2 days [1] was > 100 µM, the kinact/KI [2, 3] was 83 M⁻¹ s⁻¹ and the pEC50 (HRV-14; [4]) was 5.74.

In the case of `CCOC(=O)/C=C/[C@H](CCC(N)=O)NC(=O)c1cnc2ccccc2n1` [Compound 28, 6-carbamoyl-4S-[(quinoxaline-2-carboxyl)-amino]-hex-2-enoic acid ethyl ester], the CC50 at 2 days [1] was > 100 µM, the kinact/KI [2, 3] was 64 M⁻¹ s⁻¹ and the pEC50 (HRV-14; [4]) was 4.85.

In the case of `CCOC(=O)/C=C/[C@H](CCC(N)=O)NC(=O)c1cc2ccccc2[nH]1` [Compound 38, 6-carbamyl-4S-[(1H-indole-2-carbonyl)-amino]-hex-2-enoic acid ethyl ester], the CC50 at 2 days [1] was > 100 µM, the kinact/KI [2, 3] was 71 M⁻¹ s⁻¹ and the pEC50 (HRV-14; [4]) was 6.00.

With `CCOC(=O)/C=C/[C@H](C[C@@H]1CCNC1=O)NC(=O)c1cc2cc(OC)c(OC)cc2n1C` [Compound 19, 4S-[(5,6-dimethoxy-1-methyl-indole-2-carbonyl)-amino]-5-(2-oxo-pyrrolidin-3S-yl)-pent-2-enoic acid ethyl ester] the CC50 at 2 days [1] was > 10 µM, the kinact/KI [2] was 1230 M⁻¹ s⁻¹ and the pEC50 (HRV-14; HRV14, H1-HeLa, 48 h) was 5.87.

With `CCOC(=O)/C=C/[C@H](C[C@@H]1CCNC1=O)NC(=O)/C=C/c1ccc(F)c(Br)c1` [Compound 48, 4S-[3-(3-Bromo-4-fluoro-phenyl)-acryloylamino]-5-(2-oxo-pyrrolidin-3S-yl)-pent-2-enoic acid ethyl ester] the CC50 at 2 days [1] was > 100 µM, the kinact/KI [2] was 2860 M⁻¹ s⁻¹ and the pEC50 (HRV-14; HRV14, H1-HeLa, 48 h) was 6.20.

In the case of `CCOC(=O)/C=C/[C@H](CCC(N)=O)NC(=O)c1ccc2ccccc2n1` [Compound 31, 6-carbamoyl-4S-[(quinoline-2-carbonyl)-amino]-hex-2-enoic acid ethyl ester], the CC50 at 2 days [1] was > 100 µM, the kinact/KI [2, 3] was 110 M⁻¹ s⁻¹ and the pEC50 (HRV-14; [4]) was 5.15.

With `CCOC(=O)/C=C/[C@H](C[C@@H]1CCNC1=O)NC(=O)c1cc2cc(CC)ccc2[nH]1` [Compound 8, 4S-[(5-ethyl-1H-indole-2-carbonyl)-amino]-5-(2-oxo-pyrrolidin-3S-yl)-pent-2-enoic acid ethyl ester] the CC50 at 2 days [1] was > 10 µM, the kinact/KI [2] was 980 M⁻¹ s⁻¹ and the pEC50 (HRV-14; HRV14, H1-HeLa, 48 h) was 5.57.

For `CCOC(=O)/C=C/[C@H](C[C@@H]1CCNC1=O)NC(=O)c1ccc2cc(C)ccc2c1` [Compound 51, 4S-[(6-Methyl-naphthalene-2-carbonyl)-amino]-5-(2-oxo-pyrrolidin-3S-yl)-pent-2-enoic acid ethyl ester], the CC50 at 2 days [1] was > 100 µM, the kinact/KI [2] was 5020 M⁻¹ s⁻¹ and the pEC50 (HRV-14; HRV14, H1-HeLa, 48 h) was 6.06.

For `CCOC(=O)/C=C/[C@H](CCC(N)=O)NC(=O)c1cc(C(C)(C)C)nn1Cc1ccccc1` [Compound 33, 4S-[(2-benzyl-5-tert-butyl-2H-pyrazole-3-carbonyl)-amino]-6-carbamoyl-hex-2-enoic acid ethyl ester], the CC50 at 2 days [1] was > 100 µM, the kinact/KI [2, 3] was 27 M⁻¹ s⁻¹ and the pEC50 (HRV-14; [4]) was 4.90.

With `CCOC(=O)/C=C/[C@H](C[C@@H]1CCNC1=O)NC(=O)C1=Cc2ccccc2OC1` [Compound 67, 4S-[(2H-chromene-3-carbonyl)-amino]-5-(2-oxopyrrolidin-3S-yl)-pent-2-enoic acid ethyl ester] the CC50 at 2 days [1] was > 100 µM, the kinact/KI [2] was 886 M⁻¹ s⁻¹ and the pEC50 (HRV-14; HRV14, H1-HeLa, 48 h) was 5.92.

In the case of `CCOC(=O)/C=C/[C@H](C[C@@H]1CCNC1=O)NC(=O)c1cc2cc(Br)ccc2n1C` [Compound 21, 4S-[(5-bromo-1-methyl-indole-2-carbonyl)-amino]-5-(2-oxo-pyrrolidin-3S-yl)-pent-2-enoic acid ethyl ester], the CC50 at 2 days [1] was 17.8 µM, the kinact/KI [2] was 1320 M⁻¹ s⁻¹ and the pEC50 (HRV-14; HRV14, H1-HeLa, 48 h) was 5.51.

With `CCOC(=O)/C=C/[C@H](C[C@@H]1CCNC1=O)NC(=O)Nc1cccc2ccccc12` [Compound 56, 4S-(3-naphthalen-1-yl)-5-(2-oxo-pyrrolidin-3S-yl)-pent-2-enoic acid ethyl ester] the CC50 at 2 days [1] was > 10 µM, the kinact/KI [2] was 117 M⁻¹ s⁻¹ and the pEC50 (HRV-14; HRV14, H1-HeLa, 48 h) was < 5.00.

In the case of `CCOC(=O)/C=C/[C@H](C[C@@H]1CCNC1=O)NC(=O)N[C@@H](CC(C)C)C(=O)OCC` [Compound 24, 4S-[3-(1S-ethoxycarbonyl-3-methyl-butyl)-ureido]-5-(2-oxo-pyrrolidin-3S-yl)-pent-2-enoic acid ethyl ester], the CC50 at 2 days [1] was > 10 µM, the kinact/KI [2] was 1050 M⁻¹ s⁻¹ and the pEC50 (HRV-14; HRV14, H1-HeLa, 48 h) was 5.34.

For `CCOC(=O)/C=C/[C@H](CCC(N)=O)NC(=O)c1ccc(N(C)C)cc1` [Compound 27], the CC50 at 2 days [1] was > 100 µM, the kinact/KI [2, 3] was 45 M⁻¹ s⁻¹ and the pEC50 (HRV-14; [4]) was 5.41.

For `CCOC(=O)/C=C/[C@H](C[C@@H]1CCNC1=O)NC(=O)c1cc2cc(Br)ccc2[nH]1` [Compound 20], the CC50 at 2 days [1] was > 10 µM, the kinact/KI [2] was 1370 M⁻¹ s⁻¹ and the pEC50 (HRV-14; HRV14, H1-HeLa, 48 h) was 5.36.

For `CCOC(=O)/C=C/[C@H](CCC(N)=O)NC(=O)c1ccccc1COC(=O)c1ccccc1` [Compound 36], the CC50 at 2 days [1] was > 100 µM, the kinact/KI [2, 3] was 10 M⁻¹ s⁻¹ and the pEC50 (HRV-14; [4]) was < 4.00.

In the case of `Cc1cc(CCCOc2c(C)cc(-c3noc(C(F)(F)F)n3)cc2C)on1` [Pleconaril, reference compound], the CC50 at 2 days [1] was > 10 µM and the pEC50 (HRV-14; [4]) was 8.00.

In the case of `CCOC(=O)/C=C/[C@H](C[C@@H]1CCNC1=O)NC(=O)/C=C/c1ccc(C)cc1` [Compound 12, 5-(2-oxo-pyrrolidin-3S-yl)-4S-(3-p-tolyl-acryloylamino)-pent-2-enoic acid ethyl ester], the CC50 at 2 days [1] was > 10 µM, the kinact/KI [2] was 990 M⁻¹ s⁻¹ and the pEC50 (HRV-14; HRV14, H1-HeLa, 48 h) was 5.56.

In the case of `CCOC(=O)/C=C/[C@H](C[C@@H]1CCNC1=O)NC(=O)c1cc2cc(OC)ccc2[nH]1` [Compound 41, 4S-[(5-Methoxy-1H-indole-2-carbonyl)-amino]-5-(2-oxo-pyrrolidin-3S-yl)-pent-2-enoic acid ethyl ester], the CC50 at 2 days [1] was > 100 µM, the kinact/KI [2] was 2190 M⁻¹ s⁻¹ and the pEC50 (HRV-14; HRV14, H1-HeLa, 48 h) was 5.63.

In the case of `CCOC(=O)/C=C/[C@H](C[C@@H]1CCNC1=O)NC(=O)/C=C/c1ccc2c(c1)OCO2` [Compound 9, 4S-(3-benzo[1,3]dioxol-5-yl-acryloylamino)-5-(2-oxo-pyrrolidin-3S-yl)-pent-2-enoic acid ethyl ester], the CC50 at 2 days [1] was > 10 µM, the kinact/KI [2] was 1960 M⁻¹ s⁻¹ and the pEC50 (HRV-14; HRV14, H1-HeLa, 48 h) was 5.74.

`CCOC(=O)/C=C/[C@H](C[C@@H]1CCNC1=O)NC(=O)c1ccc(C(=O)OC)cc1` [Compound 4, N-[3-ethoxycarbonyl-1S-(2-oxo-pyrrolidin-3R-ylmethyl)-ally]-terephthalamic acid methyl ester] gave a kinact/KI [2, 3] of 258 M⁻¹ s⁻¹.

Compound `CCOC(=O)/C=C/[C@H](C[C@@H]1CCNC1=O)NC(=O)c1cc2cc(Br)ccc2o1` [Compound 14, 4S-[(5-bromo-benzofuran-2-carbonyl)-amino]-5-(2-oxo-pyrrolidin-3S-yl)-pent-2-enoic acid ethyl ester] has a kinact/KI [2, 3] of 219 M⁻¹ s⁻¹.

In the case of `CCOC(=O)c1ccc(OCCC2CCN(c3ccc(C)nn3)CC2)cc1` [Pirodavir, reference compound], the CC50 at 2 days [1] was > 10 µM and the pEC50 (HRV-14; [4]) was 7.52.
